Source: ChEMBL document CHEMBL1130408, “Repromicin derivatives with potent antibacterial activity against Pasteurella multocida” (1997)
Values after ≈ are worked out from the molar mass of the structure shown.

How the values were obtained:
[1] = species on record: Mus musculus; assay: Protected dose which protects 50% of challenged mice from death owing to the Pasteurella multocida (59A006) infection; assay type: functional; conditions: read-out: PD50
[2] = tested on: Pasteurella multocida; assay: Minimum inhibitory concentration required to inhibit Pasteurella multocida 59A006 in vitro; assay type: functional

Compound	ED50 [1]	MIC [2]
CCC1OC(=O)CC(O)C(C)C(O[C@@H]2O[C@H](C)C[C@H](N(C)C)[C@H]2O)C(CC=O)CC(C)C(=O)/C=C/C(C)=C/C1C (stereo partly specified)	> 200 mg/kg	0.39 µg/mL (≈ 0.689 µM)
CC[C@H]1OC(=O)CC(O)[C@H](C)[C@@H](O[C@@H]2O[C@H](C)C[C@H](N(C)C)[C@H]2O)[C@@H](CCN2CCOCC2)C[C@@H](C)C(=O)/C=C/C(C)=C/[C@@H]1C (stereo partly specified)	> 150 mg/kg	0.78 µg/mL (≈ 1.22 µM)
CC[C@H]1OC(=O)CC(O)[C@H](C)[C@@H](O[C@@H]2O[C@H](C)C[C@H](N(C)C)[C@H]2O)[C@@H](CCN2CCC2)C[C@@H](C)C(=O)/C=C/C(C)=C/[C@@H]1C (stereo partly specified)	46 mg/kg	0.2 µg/mL (≈ 0.33 µM)
CC[C@H]1OC(=O)CC(O)[C@H](C)[C@@H](O[C@@H]2O[C@H](C)[C@@H](O)[C@H](N(C)C)[C@H]2O)[C@@H](CCN(C)CCCN(C)C)C[C@@H](C)C(=O)/C=C/C(C)=C/[C@@H]1CO[C@@H]1O[C@H](C)[C@@H](O)[C@@H](OC)[C@H]1OC (stereo partly specified)	41 mg/kg	3.13 µg/mL (≈ 3.59 µM)
CC[C@H]1OC(=O)CC(O)[C@H](C)[C@@H](O[C@@H]2O[C@H](C)C[C@H](N(C)C)[C@H]2O)[C@@H](CCN2CC(C)CC(C)C2)C[C@@H](C)C(=O)/C=C/[C@]2(C)O[C@H]2[C@@H]1C (stereo partly specified)	> 150 mg/kg	0.2 µg/mL (≈ 0.295 µM)
CC[C@H]1OC(=O)CC(O)[C@H](C)[C@@H](O[C@@H]2O[C@H](C)[C@@H](O)[C@H](N(C)C)[C@H]2O)[C@@H](CCN(C)CCN(C)C)C[C@@H](C)C(=O)/C=C/C(C)=C/[C@@H]1CO[C@@H]1O[C@H](C)[C@@H](O)[C@@H](OC)[C@H]1OC (stereo partly specified)	> 50 mg/kg	3.13 µg/mL (≈ 3.65 µM)
CC[C@H]1OC(=O)CC(O)[C@H](C)[C@@H](O[C@@H]2O[C@H](C)C[C@H](N(C)C)[C@H]2O)[C@@H](CCN(CC)CC)C[C@@H](C)C(=O)/C=C/C(C)=C/[C@@H]1C (stereo partly specified)	141 mg/kg	0.39 µg/mL (≈ 0.626 µM)
CC[C@H]1OC(=O)CC(O)[C@H](C)[C@@H](O[C@@H]2O[C@H](C)C[C@H](N(C)C)[C@H]2O)[C@@H](CCN(C)CCCN(C)C(=O)CNC)C[C@@H](C)C(=O)/C=C/C(C)=C/[C@@H]1C (stereo partly specified)	6 mg/kg	0.39 µg/mL (≈ 0.539 µM)
CC[C@H]1OC(=O)CC(O)[C@H](C)[C@@H](O[C@@H]2O[C@H](C)C[C@H](N(C)C)[C@H]2O)[C@@H](CCN2CCCCC2)C[C@@H](C)C(=O)/C=C/[C@]2(C)O[C@H]2[C@@H]1C (stereo partly specified)	114 mg/kg	0.2 µg/mL (≈ 0.307 µM)
CC[C@H]1OC(=O)CC(O)[C@H](C)[C@@H](O[C@@H]2O[C@H](C)C[C@H](N(C)C)[C@H]2O)[C@@H](CCNCCCN(C)C)C[C@@H](C)C(=O)/C=C/C(C)=C/[C@@H]1C (stereo partly specified)	5 mg/kg	0.39 µg/mL (≈ 0.598 µM)
CC[C@H]1OC(=O)CC(O)[C@H](C)[C@@H](O[C@@H]2O[C@H](C)C[C@H](N(C)C)[C@H]2O)[C@@H](CCNCCO)C[C@@H](C)C(=O)/C=C/C(C)=C/[C@@H]1C (stereo partly specified)	10 mg/kg	0.2 µg/mL (≈ 0.327 µM)
CC[C@H]1OC(=O)CC(O)[C@H](C)[C@@H](O[C@@H]2O[C@H](C)C[C@H](N(C)C)[C@H]2O)[C@@H](CCN(CCCN(C)C)C(=O)[C@H](C)N)C[C@@H](C)C(=O)/C=C/C(C)=C/[C@@H]1C (stereo partly specified)	3 mg/kg	0.39 µg/mL (≈ 0.539 µM)
CC[C@H]1OC(=O)CC(O)[C@H](C)[C@@H](O[C@@H]2O[C@H](C)C[C@H](N(C)C)[C@H]2O)[C@@H](CCN(C)CCCNC)C[C@@H](C)C(=O)/C=C/C(C)=C/[C@@H]1C (stereo partly specified)	4 mg/kg	0.78 µg/mL (≈ 1.2 µM)
CC[C@H]1OC(=O)CC(O)[C@H](C)[C@@H](O[C@@H]2O[C@H](C)C[C@H](N(C)C)[C@H]2O)[C@@H](CCN2CC(O)C2)C[C@@H](C)C(=O)/C=C/C(C)=C/[C@@H]1C (stereo partly specified)	19 mg/kg	0.2 µg/mL (≈ 0.321 µM)
CC[C@H]1OC(=O)CC(O)[C@H](C)[C@@H](O[C@@H]2O[C@H](C)C[C@H](N(C)C)[C@H]2O)[C@@H](CCN(CCCN(C)C)C(C)=O)C[C@@H](C)C(=O)/C=C/C(C)=C/[C@@H]1C (stereo partly specified)	> 25 mg/kg	0.39 µg/mL (≈ 0.562 µM)
CC[C@H]1OC(=O)CC(O)[C@H](C)[C@@H](O[C@@H]2O[C@H](C)C[C@H](N(C)C)[C@H]2O)[C@@H](CCN(C)CCCN(C)C(=O)[C@H](C)N)C[C@@H](C)C(=O)/C=C/C(C)=C/[C@@H]1C (stereo partly specified)	5 mg/kg	0.39 µg/mL (≈ 0.539 µM)
CO[C@@H]1[C@@H](O[C@@H]2O[C@H](C)[C@@H](O[C@H]3C[C@@](C)(O)[C@@H](OC(=O)CC(C)C)[C@@H](C)O3)[C@@H](N(C)C)[C@H]2O)[C@@H](CC=O)C[C@@H](C)C(=O)/C=C/C=C/C[C@@H](C)OC(=O)C[C@H]1OC(C)=O	> 150 mg/kg	6.25 µg/mL (≈ 7.57 µM)
CC[C@H]1OC(=O)CC(O)[C@H](C)[C@@H](O[C@@H]2O[C@H](C)C[C@H](N(C)C)[C@H]2O)[C@@H](CCN(C)CC)C[C@@H](C)C(=O)/C=C/C(C)=C/[C@@H]1C (stereo partly specified)	150 mg/kg	0.2 µg/mL (≈ 0.328 µM)
CC[C@H]1OC(=O)CC(O)[C@H](C)[C@@H](O[C@@H]2O[C@H](C)[C@@H](O)[C@H](N(C)C)[C@H]2O)[C@@H](CCNCCCN(C)C)C[C@@H](C)C(=O)/C=C/C(C)=C/[C@@H]1CO[C@@H]1O[C@H](C)[C@@H](O)[C@@H](OC)[C@H]1OC (stereo partly specified)	–	12.5 µg/mL (≈ 14.6 µM)
CC[C@H]1OC(=O)CC(O)[C@H](C)[C@@H](O[C@@H]2O[C@H](C)C[C@H](N(C)C)[C@H]2O)[C@@H](CCN(C)CCNC)C[C@@H](C)C(=O)/C=C/C(C)=C/[C@@H]1C (stereo partly specified)	> 20 mg/kg	0.2 µg/mL (≈ 0.314 µM)
CC[C@H]1OC(=O)CC(O)[C@H](C)[C@@H](O[C@@H]2O[C@H](C)C[C@H](N(C)C)[C@H]2O)[C@@H](CCNC(CO)CO)C[C@@H](C)C(=O)/C=C/C(C)=C/[C@@H]1C (stereo partly specified)	31 mg/kg	0.39 µg/mL (≈ 0.609 µM)
CC[C@H]1OC(=O)CC(O)[C@H](C)[C@@H](O[C@@H]2O[C@H](C)C[C@H](N(C)C)[C@H]2O)[C@@H](CCN(C)CCO)C[C@@H](C)C(=O)/C=C/C(C)=C/[C@@H]1C (stereo partly specified)	45 mg/kg	0.2 µg/mL (≈ 0.32 µM)
CC[C@H]1OC(=O)CC(O)[C@H](C)[C@@H](O[C@@H]2O[C@H](C)C[C@H](N(C)C)[C@H]2O)[C@@H](CCNC2C(O)CCCC2O)C[C@@H](C)C(=O)/C=C/C(C)=C/[C@@H]1C (stereo partly specified)	11 mg/kg	0.2 µg/mL (≈ 0.294 µM)
CC[C@H]1OC(=O)CC(O)[C@H](C)[C@@H](O[C@@H]2O[C@H](C)[C@@H](O)[C@H](N(C)C)[C@H]2O)[C@@H](CCN(C)CCCNC)C[C@@H](C)C(=O)/C=C/C(C)=C/[C@@H]1CO[C@@H]1O[C@H](C)[C@@H](O)[C@@H](OC)[C@H]1OC (stereo partly specified)	–	25 µg/mL (≈ 29.1 µM)
CC[C@H]1OC(=O)CC(O)[C@H](C)[C@@H](O[C@@H]2O[C@H](C)C[C@H](N(C)C)[C@H]2O)[C@@H](CCN(C)CCN(C)C(=O)[C@H](C)N)C[C@@H](C)C(=O)/C=C/C(C)=C/[C@@H]1C (stereo partly specified)	12 mg/kg	0.05 µg/mL (≈ 0.0705 µM)
CC[C@H]1OC(=O)CC(O)[C@H](C)[C@@H](O[C@@H]2O[C@H](C)C[C@H](N(C)C)[C@H]2O)[C@@H](CCN(C)CCN(C)C(=O)CN)C[C@@H](C)C(=O)/C=C/C(C)=C/[C@@H]1C (stereo partly specified)	4 mg/kg	0.2 µg/mL (≈ 0.288 µM)
CCNCC[C@H]1C[C@@H](C)C(=O)/C=C/C(C)=C/[C@H](C)[C@@H](CC)OC(=O)CC(O)[C@H](C)[C@H]1O[C@@H]1O[C@H](C)C[C@H](N(C)C)[C@H]1O (stereo partly specified)	> 150 mg/kg	0.2 µg/mL (≈ 0.336 µM)
CC[C@H]1OC(=O)CC(O)[C@H](C)[C@@H](O[C@@H]2O[C@H](C)C[C@H](N(C)C)[C@H]2O)[C@@H](CCN2CCCC2)C[C@@H](C)C(=O)/C=C/C(C)=C/[C@@H]1C (stereo partly specified)	128 mg/kg	0.39 µg/mL (≈ 0.628 µM)
CC[C@H]1OC(=O)CC(O)[C@H](C)[C@@H](O[C@@H]2O[C@H](C)C[C@H](N(C)C)[C@H]2O)[C@@H](CCN(CCCN(C)C)C(=O)CNC)C[C@@H](C)C(=O)/C=C/C(C)=C/[C@@H]1C (stereo partly specified)	6 mg/kg	1.56 µg/mL (≈ 2.16 µM)
